In patent publication US12728186B2, “Methods and kits for preparing pathogen-inactivated whole blood” (priority 2018, dated 2026):
Several values for one entry are separate records, joined by “and”; a condition that tells them apart may be missing. Identical values can stand only once.

Experiments:
Format in all cases: physicochemical
[1] = Residual amustaline by LCMS, Example 6 further example (direct donor collection into 2-container kit); conditions: donor blood collected into 2-container kit with CPDA-1; 22° C. 20 hours, second container 2-4 hours
Protocol: In another example, a 2-container kit comprising a treatment container and a filter set (e.g., described above) for introducing the amustaline/GSH (e.g., FIG. 8c) is used to collect from a donor 450 mL of whole blood into the first container that contains 63 mL of anticoagulant CPDA-1 (e.g., blood:anticoagulant ratio approximately 7:1), through the first inlet port. The collection line is then closed using a medical tubing clamp and the whole blood and anticoagulant solution are mixed. The pathogen inactivation compound amustaline and the quencher GSH are next added to the whole blood in the first container through the second port, to final concentrations of about 0.2 mM and 2.0 mM, respectively. The mixture of whole blood, PIC and quencher are incubated at 22° C. for 20 hours, followed by transfer of the mixture to the second container, clamping the tubing between the first and second containers, and incubating the mixture at 22° C. for a further 2-4 hours to provide a pathogen-inactivated whole blood unit.

[2] = Residual unreacted amustaline by LCMS, Example 2 (3-container kit)
Protocol: Another study was performed to evaluate the effect of container transfer on residual levels of amustaline after pathogen-inactivation of whole blood using a 3-container kit of the present disclosure to allow for one or two transfer steps from the initial (e.g., first) container and a similar filter set as Example 1. Six ABO matched whole blood units in anticoagulant were pooled and split into six ~450 mL units transferred into the first blood bag container of the kit comprising Transfufol 3226 PVC film (Renolit), followed by severing and sealing the pooled donor blood bag, and subsequent connection by tubing welding of a filter set to the same input port (e.g., attached tubing) of the first container, for transferring amustaline and GSH into the whole blood. Amustaline and GSH were added to the whole blood units at final concentrations of 0.2 mM and 2.0 mM, respectively, followed by transfer of the mixture to the second bag (Transfufol 3226 PVC film) and incubated at 22° C. At 22 hr, samples were taken for analysis along with transfer of the mixture to the third bag (Transfufol 3226 PVC film), followed by further incubation at 22° C., with additional samples taken for analysis at 24 hr (i.e., 2 hr post-final transfer) and 26 hr (i.e., 4 hr post-final transfer).
Samples were analyzed by LCMS to determine the level of residual, unreacted amustaline as previously described.

[3] = Residual unreacted amustaline by LCMS, Example 1 (treatment container; samples moved to separate containers); conditions: for Residual amustaline levels in pathogen-inactivated whole blood, 21 hr / Residual amustaline levels in pathogen-inactivated whole blood, 24 hr / Residual amustaline levels in pathogen-inactivated whole blood, 27 hr / Residual amustaline levels in pathogen-inactivated whole blood, 30 hr / Residual amustaline levels in pathogen-inactivated whole blood, 33 hr / Residual amustaline levels in pathogen-inactivated whole blood, 36 hr / Residual amustaline levels in pathogen-inactivated whole blood, 42 hr: no transfer, 0.2 mM amustaline, 2.0 mM GSH
Protocol: Pathogen inactivated whole blood was prepared with the pathogen inactivation compound, amustaline, and the quencher glutathione (Henschler et al., 2011, Transfus Med Hemother 38:33-42), in a kit of the present disclosure comprising a treatment container and tubing with a 3-way branch for introducing the amustaline/GSH (e.g., a “filter set”) comprising two in line filters for coupling (e.g., connecting) containers (e.g., syringes) of PIC and quencher, and the third branch coupled to (e.g., connected to) a sample diversion pouch (e.g., FIG. 3b). More specifically, four ABO-matched whole blood units containing anticoagulant were pooled and split into 8 half units (225 mL/half unit), added into each of eight treatment bags by connecting the pooled donor blood bag containing the whole blood to the treatment container by way of the tubing and using a tubing welder. Following transfer of the whole blood into the treatment containers, the pooled donor blood bag was removed by sealing and severing the tubing, and the filter set was sterile coupled using a tubing welder to the same input port of the treatment container via the remaining tubing. Amustaline and GSH were added to final concentrations of 0.2 mM and 2.0 mM, respectively. GSH was added first, followed by addition of amustaline, either within 5 minutes of GSH addition or after at least 15 minutes hold time, as indicated in Table 1. The mixtures were incubated at 22° C. (Units 1-4) or 25° C. (Units 5-8), with samples removed at the indicated times for analysis by liquid chromatography-mass spectrometry (LCMS) to determine the level of residual, unreacted amustaline.
Additionally, 50 mL of the mixture was removed from each of Units 2 and 8 at 24 hr and divided into two 25 mL samples in separate containers to compare storage at 4° C. versus room temperature, and for evaluation of residual amustaline levels at 2, 4, 6 and 8 hours of storage under those conditions (Table 2).

[4] = Units 1-2, amustaline added >15 min after GSH, 22° C. in treatment container
[5] = Units 3-4, amustaline added <5 min after GSH, 22° C. in treatment container
[6] = Units 5-6, amustaline added >15 min after GSH, 25° C. in treatment container
[7] = Units 7-8, amustaline added <5 min after GSH, 25° C. in treatment container

O=C(CCNc1c2ccccc2nc2ccccc12)OCCN(CCCl)CCCl [amustaline]
Residual amustaline levels in the pathogen-inactivated whole blood preparation [1]: below 1 nm | Residual amustaline levels in pathogen-inactivated whole blood, 22 hr ([2]; Units 1-6, 3-container kit (PVC), moved to second bag after amustaline/GSH addition, 22° C., 22 hr, at transfer to third bag): 1.46 nM and 1.39 nM and 1.35 nM and 1.96 nM and 1.84 nM and 1.55 nM | Residual amustaline levels in pathogen-inactivated whole blood, 26 hr ([2]; Units 1-6, 3-container kit (PVC), third bag from 22 hr, 22° C., 26 hr (4 hr post-final transfer)): BLOQ (BLOQ = Below Limit of Quantitation (e.g., < 0.75 nM)) | residual amustaline levels after transfer to third bag ([2]; third bag after 22 hr, further 22° C. for 2 hr or 4 hr, all samples): below 1 nM | Residual amustaline levels in pathogen-inactivated whole blood, 21 hr [3, 4]: 3.50 nM and 4.09 nM | Residual amustaline levels in pathogen-inactivated whole blood, 21 hr [3, 5]: 3.45 nM and 3.85 nM | Residual amustaline levels in pathogen-inactivated whole blood, 21 hr [3, 6]: 2.91 nM and 3.21 nM | Residual amustaline levels in pathogen-inactivated whole blood, 21 hr [3, 7]: 3.43 nM and 4.15 nM | Residual amustaline levels in pathogen-inactivated whole blood, 24 hr [3, 4]: 2.62 nM and 2.66 nM | Residual amustaline levels in pathogen-inactivated whole blood, 24 hr [3, 5]: 3.04 nM and 3.53 nM | Residual amustaline levels in pathogen-inactivated whole blood, 24 hr [3, 6]: 2.44 nM and 2.58 nM | Residual amustaline levels in pathogen-inactivated whole blood, 24 hr [3, 7]: 2.86 nM and 3.39 nM | Residual amustaline levels in pathogen-inactivated whole blood, 27 hr [3, 4]: 2.27 nM and 3.07 nM | Residual amustaline levels in pathogen-inactivated whole blood, 27 hr [3, 5]: 3.29 nM and 3.7 nM | Residual amustaline levels in pathogen-inactivated whole blood, 27 hr [3, 6]: 2.55 nM and 2.71 nM | Residual amustaline levels in pathogen-inactivated whole blood, 27 hr [3, 7]: 2.74 nM and 3.30 nM | Residual amustaline levels in pathogen-inactivated whole blood, 30 hr [3, 4]: 2.11 nM and 2.95 nM | Residual amustaline levels in pathogen-inactivated whole blood, 30 hr [3, 5]: 2.67 nM and 2.84 nM | Residual amustaline levels in pathogen-inactivated whole blood, 30 hr [3, 6]: 2.04 nM and 2.49 nM | Residual amustaline levels in pathogen-inactivated whole blood, 30 hr [3, 7]: 2.34 nM and 2.59 nM | Residual amustaline levels in pathogen-inactivated whole blood, 33 hr [3, 4]: 2.61 nM and 2.29 nM | Residual amustaline levels in pathogen-inactivated whole blood, 33 hr [3, 5]: 2.16 nM and 2.22 nM | Residual amustaline levels in pathogen-inactivated whole blood, 33 hr [3, 6]: 1.76 nM and 1.47 nM | Residual amustaline levels in pathogen-inactivated whole blood, 33 hr [3, 7]: 1.64 nM and 2.83 nM | Residual amustaline levels in pathogen-inactivated whole blood, 36 hr [3, 4]: 1.62 nM and 1.38 nM | Residual amustaline levels in pathogen-inactivated whole blood, 36 hr [3, 5]: 1.73 nM and 1.41 nM | Residual amustaline levels in pathogen-inactivated whole blood, 36 hr [3, 6]: 1.89 nM and 1.87 nM | Residual amustaline levels in pathogen-inactivated whole blood, 36 hr [3, 7]: 2.28 nM and 1.97 nM | Residual amustaline levels in pathogen-inactivated whole blood, 42 hr [3, 4]: 1.30 nM and 1.35 nM | Residual amustaline levels in pathogen-inactivated whole blood, 42 hr [3, 5]: 1.66 nM and 1.57 nM | Residual amustaline levels in pathogen-inactivated whole blood, 42 hr [3, 6]: 1.62 nM and 1.22 nM | Residual amustaline levels in pathogen-inactivated whole blood, 2 hr ([3]; Units 2 and 8, 25 mL sample removed at 24 hr into separate container, stored at RT, 2 hr of storage): BLOQ (BLOQ = Below Limit of Quantitation (e.g., < 0.75 nM)) | Residual amustaline levels in pathogen-inactivated whole blood, 4 hr ([3]; Units 2 and 8, 25 mL sample removed at 24 hr into separate container, stored at RT, 4 hr of storage): BLOQ (BLOQ = Below Limit of Quantitation (e.g., < 0.75 nM)) | Residual amustaline levels in pathogen-inactivated whole blood, 6 hr ([3]; Units 2 and 8, 25 mL sample removed at 24 hr into separate container, stored at RT, 6 hr of storage): BLOQ (BLOQ = Below Limit of Quantitation (e.g., < 0.75 nM)) | residual amustaline after transfer to a different container and storage at room temperature ([3]; treatment mixtures from Units 2 and 8, transfer to a different container, further storage at room temperature): below the limit of quantitation
